Assay results: patent US20210253557A1, “SUBSTITUTED TRIAZOLE DERIVATIVES AND USES THEREOF” (Bayer Pharma Aktiengesellschaft, priority 2017, published 2021)

Assays:
human V1a receptor = target: T1, human V1a receptor (Homo sapiens, UniProt P37288); test: Cellular in vitro assay for determining vasopressin receptor activity (V1a, aequorin luminescence); assay type: cell-based; conditions: for IC50: CHO cell line transfected with the human V1a receptor, [Arg8]-vasopressin at EC50 concentration, read-out: IC50 hV1a; for ratio IC50 hV2/hV1a: selectivity ratio of IC50 hV2 to IC50 hV1a
T1 construct: expressed in transfected cells; host or cells: CHO K1 (ATCC), also stably transfected with a modified aequorin
T1 sequence (P37288 whole entry): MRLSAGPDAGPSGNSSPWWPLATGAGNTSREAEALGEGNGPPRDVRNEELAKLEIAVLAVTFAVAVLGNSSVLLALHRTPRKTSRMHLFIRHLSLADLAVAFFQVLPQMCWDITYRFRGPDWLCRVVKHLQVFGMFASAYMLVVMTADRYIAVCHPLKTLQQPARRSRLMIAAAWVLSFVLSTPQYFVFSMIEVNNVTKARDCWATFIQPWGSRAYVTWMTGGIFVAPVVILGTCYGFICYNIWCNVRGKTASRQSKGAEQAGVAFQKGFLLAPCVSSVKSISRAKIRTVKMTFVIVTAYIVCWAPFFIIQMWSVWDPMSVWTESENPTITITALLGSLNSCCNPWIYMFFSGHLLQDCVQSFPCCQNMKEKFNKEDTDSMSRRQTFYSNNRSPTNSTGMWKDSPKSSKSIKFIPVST

human V2 receptor = target: T2, human V2 receptor (Homo sapiens, UniProt P30518); test: Cellular in vitro assay for determining vasopressin receptor activity (V2, CRE-luciferase); assay type: cell-based; conditions: CHO cell line transfected with the human V2 receptor; [Arg8]-vasopressin at EC50 concentration; read-out: IC50 hV2
T2 construct: expressed in transfected cells; host or cells: CHO K1 (ATCC) expressing firefly luciferase under a CRE-responsive promoter
T2 sequence (P30518 whole entry): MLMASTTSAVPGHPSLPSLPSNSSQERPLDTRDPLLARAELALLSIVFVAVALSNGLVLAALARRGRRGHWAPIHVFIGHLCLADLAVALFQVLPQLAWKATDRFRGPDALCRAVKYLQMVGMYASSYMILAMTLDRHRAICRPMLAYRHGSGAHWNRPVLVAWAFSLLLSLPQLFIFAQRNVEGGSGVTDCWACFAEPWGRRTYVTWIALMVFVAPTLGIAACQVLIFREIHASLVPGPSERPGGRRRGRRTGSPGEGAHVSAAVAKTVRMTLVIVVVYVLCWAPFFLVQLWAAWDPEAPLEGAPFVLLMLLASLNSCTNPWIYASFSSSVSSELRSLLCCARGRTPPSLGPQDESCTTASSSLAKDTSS
How it was run: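 Antagonism was measured as inhibition of a 3-h, EC50-level [Arg8]-vasopressin stimulation, with compounds tested at several concentrations, yielding IC50 values. The read-out was cAMP-driven CRE-luciferase luminescence after lysis, in recombinant CHO K1 cells carrying human V2 receptor. Cells were seeded in 2% FCS DMEM/F12 one day earlier.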

CS(=O)(=O)NC(CO)c1nc(Cn2nc(-c3ccc(Cl)cc3)n(C[C@H](O)C(F)(F)F)c2=O)nn1-c1ccccc1Cl (single isomer, unassigned) [Example 86]
IC50 (human V1a receptor): 0.97 nM
ratio IC50 hV2/hV1a (human V1a receptor): 2.1
IC50 (human V2 receptor): 2 nM

CS(=O)(=O)NC(CO)c1nc(Cn2nc(-c3ccc(Cl)cc3)n(C[C@H](O)C(F)(F)F)c2=O)nn1-c1ccccc1Cl (single isomer, unassigned) [Example 87]
IC50 (human V1a receptor): 2.25 nM
ratio IC50 hV2/hV1a (human V1a receptor): 15.8
IC50 (human V2 receptor): 35.5 nM

CC(=O)NC(COC(C)(C)C)c1nc(Cn2nc(-c3ccc(Cl)cc3)n(C[C@H](O)C(F)(F)F)c2=O)nn1-c1ccccc1Cl (single isomer, unassigned) [Example 89]
IC50 (human V1a receptor): 3.45 nM
ratio IC50 hV2/hV1a (human V1a receptor): 37.4
IC50 (human V2 receptor): 129 nM

CC(=O)NC(COC(C)(C)C)c1nc(Cn2nc(-c3ccc(Cl)cc3)n(C[C@H](O)C(F)(F)F)c2=O)nn1-c1ccccc1Cl (single isomer, unassigned) [Example 90]
IC50 (human V1a receptor): 12.5 nM
ratio IC50 hV2/hV1a (human V1a receptor): 392.0
IC50 (human V2 receptor): 4900 nM

CC(=O)NC(CO)c1nc(Cn2nc(-c3ccc(Cl)cc3)n(C[C@H](O)C(F)(F)F)c2=O)nn1-c1ccccc1Cl (single isomer, unassigned) [Example 92]
IC50 (human V1a receptor): 5.1 nM
ratio IC50 hV2/hV1a (human V1a receptor): 3.4
IC50 (human V2 receptor): 17.5 nM

CC(=O)NC(CO)c1nc(Cn2nc(-c3ccc(Cl)cc3)n(C[C@H](O)C(F)(F)F)c2=O)nn1-c1ccccc1Cl (single isomer, unassigned) [Example 93]
IC50 (human V1a receptor): 0.78 nM
ratio IC50 hV2/hV1a (human V1a receptor): 20.0
IC50 (human V2 receptor): 15.5 nM

O=C(NC(CO)c1nc(Cn2nc(-c3ccc(Cl)cc3)n(C[C@H](O)C(F)(F)F)c2=O)nn1-c1ccccc1Cl)C(F)(F)F (single isomer, unassigned) [Example 96]
IC50 (human V1a receptor): 0.55 nM
ratio IC50 hV2/hV1a (human V1a receptor): 6.0
IC50 (human V2 receptor): 3.25 nM

O=C(NC(CO)c1nc(Cn2nc(-c3ccc(Cl)cc3)n(C[C@H](O)C(F)(F)F)c2=O)nn1-c1ccccc1Cl)C(F)(F)F (single isomer, unassigned) [Example 97]
IC50 (human V1a receptor): 4.45 nM
ratio IC50 hV2/hV1a (human V1a receptor): 4.5
IC50 (human V2 receptor): 20 nM

O=C1NC(c2nc(Cn3nc(-c4ccc(Cl)cc4)n(C[C@H](O)C(F)(F)F)c3=O)nn2-c2ccccc2Cl)CO1 (single isomer, unassigned) [Example 99]
IC50 (human V1a receptor): 3.3 nM
ratio IC50 hV2/hV1a (human V1a receptor): 6.4
IC50 (human V2 receptor): 21 nM

O=C1NC(c2nc(Cn3nc(-c4ccc(Cl)cc4)n(C[C@H](O)C(F)(F)F)c3=O)nn2-c2ccccc2Cl)CO1 (single isomer, unassigned) [Example 100]
IC50 (human V1a receptor): 4.33 nM
ratio IC50 hV2/hV1a (human V1a receptor): 20.2
IC50 (human V2 receptor): 87.5 nM

CN1C(=O)CC[C@@H]1c1nc(Cn2nc(-c3ccc(Cl)cc3)n(C[C@H](O)C(F)(F)F)c2=O)nn1-c1ncccc1Cl (single isomer, unassigned) [Example 104]
IC50 (human V1a receptor): 3.1 nM
ratio IC50 hV2/hV1a (human V1a receptor): 56.4
IC50 (human V2 receptor): 175 nM

CN1C(=O)CC[C@@H]1c1nc(Cn2nc(-c3ccc(Cl)cc3)n(C[C@H](O)C(F)(F)F)c2=O)nn1-c1ncccc1Cl (single isomer, unassigned) [Example 105]
IC50 (human V1a receptor): 2.1 nM
ratio IC50 hV2/hV1a (human V1a receptor): 24.3
IC50 (human V2 receptor): 51 nM

CC(=O)NC(C)c1nc(Cn2nc(-c3ccc(Cl)cc3)n(C[C@H](O)C(F)(F)F)c2=O)nn1-c1ncccc1Cl (single isomer, unassigned) [Example 108]
IC50 (human V1a receptor): 6.03 nM
ratio IC50 hV2/hV1a (human V1a receptor): 11.5
IC50 (human V2 receptor): 69.4 nM

CC(=O)NC(C)c1nc(Cn2nc(-c3ccc(Cl)cc3)n(C[C@H](O)C(F)(F)F)c2=O)nn1-c1ncccc1Cl (single isomer, unassigned) [Example 109]
IC50 (human V1a receptor): 39 nM
ratio IC50 hV2/hV1a (human V1a receptor): 10.5
IC50 (human V2 receptor): 408 nM

O=C1NC(c2nc(Cn3nc(-c4ccc(Cl)cc4)n(C[C@H](O)C(F)(F)F)c3=O)nn2-c2ncccc2Cl)CO1 (single isomer, unassigned) [Example 113]
IC50 (human V1a receptor): 5.8 nM
ratio IC50 hV2/hV1a (human V1a receptor): 23.1
IC50 (human V2 receptor): 134 nM

O=C1NC(c2nc(Cn3nc(-c4ccc(Cl)cc4)n(C[C@H](O)C(F)(F)F)c3=O)nn2-c2ncccc2Cl)CO1 (single isomer, unassigned) [Example 114]
IC50 (human V1a receptor): 22.7 nM
ratio IC50 hV2/hV1a (human V1a receptor): 23.2
IC50 (human V2 receptor): 525 nM

O=C1NC(c2nc(Cn3nc(-c4ccc(Cl)cc4)n(C[C@H](O)C(F)(F)F)c3=O)nn2-c2ncccc2OC(F)(F)F)CO1 (single isomer, unassigned) [Example 118]
IC50 (human V1a receptor): 17 nM
ratio IC50 hV2/hV1a (human V1a receptor): 22.7
IC50 (human V2 receptor): 385 nM

O=C1NC(c2nc(Cn3nc(-c4ccc(Cl)cc4)n(C[C@H](O)C(F)(F)F)c3=O)nn2-c2ncccc2OC(F)(F)F)CO1 (single isomer, unassigned) [Example 119]
IC50 (human V1a receptor): 57 nM
ratio IC50 hV2/hV1a (human V1a receptor): 15.4
IC50 (human V2 receptor): 875 nM

CC(=O)NC(CO)c1nc(Cn2nc(-c3ccc(Cl)cc3)n(C[C@H](O)C(F)(F)F)c2=O)nn1-c1ncccc1OC(F)(F)F (single isomer, unassigned) [Example 121]
IC50 (human V1a receptor): 147 nM
ratio IC50 hV2/hV1a (human V1a receptor): 18.8
IC50 (human V2 receptor): 2780 nM

CC(=O)NC(CO)c1nc(Cn2nc(-c3ccc(Cl)cc3)n(C[C@H](O)C(F)(F)F)c2=O)nn1-c1ncccc1OC(F)(F)F (single isomer, unassigned) [Example 122]
IC50 (human V1a receptor): 6.35 nM
ratio IC50 hV2/hV1a (human V1a receptor): 44.1
IC50 (human V2 receptor): 280 nM

CNc1ccncc1-n1nc(Cn2nc(-c3ccc(Cl)cc3)n(C[C@H](O)C(F)(F)F)c2=O)nc1C(C)NC(C)=O (single isomer, unassigned) [Example 126]
IC50 (human V1a receptor): 1380 nM
ratio IC50 hV2/hV1a (human V1a receptor): 0.9
IC50 (human V2 receptor): 1260 nM

CNc1ccncc1-n1nc(Cn2nc(-c3ccc(Cl)cc3)n(C[C@H](O)C(F)(F)F)c2=O)nc1C(C)NC(C)=O (single isomer, unassigned) [Example 127]
IC50 (human V1a receptor): 53 nM
ratio IC50 hV2/hV1a (human V1a receptor): 29.3
IC50 (human V2 receptor): 1550 nM

CN1C(=O)CCC1c1nc(Cn2nc(-c3ccc(Cl)cc3)n(C[C@H](O)C(F)(F)F)c2=O)nn1CCC(F)(F)F (single isomer, unassigned) [Example 131]
IC50 (human V1a receptor): 9.55 nM
ratio IC50 hV2/hV1a (human V1a receptor): 161.3
IC50 (human V2 receptor): 1540 nM

CN1C(=O)CCC1c1nc(Cn2nc(-c3ccc(Cl)cc3)n(C[C@H](O)C(F)(F)F)c2=O)nn1CCC(F)(F)F (single isomer, unassigned) [Example 132]
IC50 (human V1a receptor): 18.5 nM
ratio IC50 hV2/hV1a (human V1a receptor): 93.5
IC50 (human V2 receptor): 1730 nM

C[C@H](OC(N)=O)c1nc(Cn2nc(-c3ccc(Cl)cc3)n(C[C@H](O)C(F)(F)F)c2=O)nn1-c1c(Cl)cccc1Cl [Example 1, (1S)-1-[3-({3-(4-Chlorophenyl)-5-oxo-4-[(2S)-3,3,3-trifluoro-2-hydroxypropyl]-4,5-dihydro-1H-1,2,4-triazol-1-yl}methyl)-1-(2,6-dichlorophenyl)-1H-1,2,4-triazol-5-yl]ethyl Carbamate]
IC50 (human V1a receptor): 3.5 nM
ratio IC50 hV2/hV1a (human V1a receptor): 4.7
IC50 (human V2 receptor): 16.3 nM

C[C@@H](OC(N)=O)c1nc(Cn2nc(-c3ccc(Cl)cc3)n(C[C@H](O)C(F)(F)F)c2=O)nn1-c1c(Cl)cccc1Cl [Example 2, (1R)-1-[3-({3-(4-Chlorophenyl)-5-oxo-4-[(2S)-3,3,3-trifluoro-2-hydroxypropyl]-4,5-dihydro-1H-1,2,4-triazol-1-yl}methyl)-1-(2,6-dichlorophenyl)-1H-1,2,4-triazol-5-yl]ethyl Carbamate]
IC50 (human V1a receptor): 0.97 nM
ratio IC50 hV2/hV1a (human V1a receptor): 6.0
IC50 (human V2 receptor): 5.8 nM

C[C@@H](OC(N)=O)c1nc(Cn2nc(-c3ccc(Cl)cc3)n(C[C@H](O)C(F)(F)F)c2=O)nn1-c1c(F)cccc1Cl [Example 3, (1R)-1-[1-(2-Chloro-6-fluorophenyl)-3-({3-(4-chlorophenyl)-5-oxo-4-[(2S)-3,3,3-trifluoro-2-hydroxypropyl]-4,5-dihydro-1H-1,2,4-triazol-1-yl}methyl)-1H-1,2,4-triazol-5-yl]ethyl Carbamate]
IC50 (human V1a receptor): 1.35 nM
ratio IC50 hV2/hV1a (human V1a receptor): 5.1
IC50 (human V2 receptor): 6.85 nM

C[C@@H](OC(N)=O)c1nc(Cn2nc(-c3ccc(Cl)cc3)n(C[C@H](O)C(F)(F)F)c2=O)nn1-c1ccc(F)cc1Cl [Example 4, (1R)-1-[1-(2-Chloro-4-fluorophenyl)-3-({3-(4-chlorophenyl)-5-oxo-4-[(2S)-3,3,3-trifluoro-2-hydroxypropyl]-4,5-dihydro-1H-1,2,4-triazol-1-yl}methyl)-1H-1,2,4-triazol-5-yl]ethyl Carbamate]
IC50 (human V1a receptor): 1.46 nM
ratio IC50 hV2/hV1a (human V1a receptor): 9.2
IC50 (human V2 receptor): 13.4 nM

C[C@H](OC(N)=O)c1nc(Cn2nc(-c3ccc(Cl)cc3)n(C[C@H](O)C(F)(F)F)c2=O)nn1-c1ccccc1OC(F)F [Example 5, (1S)-1-{3-({3-(4-Chlorophenyl)-5-oxo-4-[(2S)-3,3,3-trifluoro-2-hydroxypropyl]-4,5-dihydro-1H-1,2,4-triazol-1-yl}methyl)-1-[2-(difluoromethoxy)phenyl]-1H-1,2,4-triazol-5-yl}ethyl Carbamate]
IC50 (human V1a receptor): 1.6 nM
ratio IC50 hV2/hV1a (human V1a receptor): 4.4
IC50 (human V2 receptor): 7.05 nM

C[C@@H](OC(N)=O)c1nc(Cn2nc(-c3ccc(Cl)cc3)n(C[C@H](O)C(F)(F)F)c2=O)nn1-c1ccccc1OC(F)F [Example 6, (1R)-1-{3-({3-(4-Chlorophenyl)-5-oxo-4-[(2S)-3,3,3-trifluoro-2-hydroxypropyl]-4,5-dihydro-1H-1,2,4-triazol-1-yl}methyl)-1-[2-(difluoromethoxy)phenyl]-1H-1,2,4-triazol-5-yl}ethyl Carbamate]
IC50 (human V1a receptor): 0.81 nM
ratio IC50 hV2/hV1a (human V1a receptor): 25.6
IC50 (human V2 receptor): 20.7 nM
